Results as given in patent US6197760A (priority 2000, dated 2001).
“Also recorded” adds a separate entry of the source. Like-named read-outs stand apart in the source and are kept apart here.

Key:
[1] = test system: MCF-7 mammary tumor xenograft; design: species or system human; details: in vivo, sc
L1210/CPA leukemia = type: in vivo, male CDF1 mice
mammary tumor 16/C = test system: mammary tumor 16/C; design: species or system murine; details: mouse, in vivo
[2] = test system: MX-1 mammary tumor xenograft; type: in vivo, human
LOX-IMVI melanoma = assay: Evaluation against i.p. implanted LOX-IMVI melanoma (Table 6); type: in vivo, human; details: for 55-Day Surv./Total / % ILS / Median Day of Death: IP, Q1DX1 (1); for increase in life span (ILS) / survivors: Table 6
Protocol: BM-IPM was evaluated vs. human LOX-IMVI melanoma and produced a 52% increase in life span (ILS) and 20% survivors, while IPM yielded an identical ILS with no survivors.
Evaluation of BM-IPM Against I.P. Implanted Human
Treatment: IP: Q1DX1 (1) Therapeutic Response

Lewis lung carcinoma = details: mouse, in vivo; for % ILS (increase in life span, excluding survivors) / Log kill total (Log10 cell kill) / Tumour-free survivors: ip
P388 leukemia [3] = details: cited from earlier work
M5076 sarcoma [4] = details: cited from earlier work
in vivo [5] = details: mouse, ip
in vivo [6] = details: mouse, ip; remark: listed apart in the source
[7] = clinical; cited from earlier work
P388 leukemia [8] = test system: P388 leukemia; design: species or system murine; details: mouse, in vivo; for 45-Day Surv/Total / % ILS / Approx. Net Log10 Change In Tumor Burden at End of Rx / Median Day of Death: ip, 100 mg/kg
M5076 sarcoma [9] = assay: Response of s.c. implanted M5076 sarcoma (Table 4); type: in vivo, murine; details: for days T-C: Table 4, dose not given
Protocol: Response of S.C. Implanted M5076 Sarcoma to Treatment with
The compounds were injected i.p. daily on days 11-15.

[10] = test system: experimental leukemias and solid tumors; design: species or system mice and rats; details: in vivo
[11] = patients treated with Ifos; cited from earlier work
[12] = L1210/CPA, i.p. day 2 only at MTD (CPA 200, Ifos 431, IPM 100 mg/kg)
[13] = L1210/CPA, i.p. day 2 only at MTD (CPA 200, Ifos 431, IPM 100 mg/kg), tumor burden at start 6.0 × 10^7 cells
[14] = L1210/0, i.p. day 2 only at MTD (CPA 200, Ifos 431, IPM 100 mg/kg)
[15] = L1210/0, i.p. day 2 only at MTD (CPA 200, Ifos 431, IPM 100 mg/kg), tumor burden at start 8.5 × 10^8 cells
[16] = MTD Dosage (highest non-toxic dose, LD10 or less)
[17] = 18 mg/kg i.p. daily on days 11-15
[18] = 27 mg/kg i.p. daily on days 11-15
[19] = 40 mg/kg i.p. daily on days 11-15

For N[C@@H](Cc1ccc(N(CCCl)CCCl)cc1)C(=O)O [Melphalan], the “Days delay (T-C)” value [1] was 28.1.

With O=P1(N(CCCl)CCCl)NCCCO1 (stereo not drawn) [CPA, cyclophosphamide] the “% ILS (dying mice only)” value (L1210/CPA leukemia; [12]) was “+57%”, the “Net log10 reduction in tumor burden after therapy” value (“Net log10 reduction” below) (L1210/CPA leukemia; [12]) was 4 log10 and the “Day 60 survivors/total” value (L1210/CPA leukemia; [13]) was 0/10. For the same molecule, the “tumor response / comparative activity vs. 16/C” value (mammary tumor 16/C) was “none of which caused tumor regression”, the “Days delay (T-C)” value [1] was 6.7 and the “activity vs. MX-1” value ([2]; experiment analogous to MCF-7) was “high activity”. For the same molecule, the “55-Day Surv./Total” value (LOX-IMVI melanoma; 40 mg/kg/dose) was 0/5, the “% ILS” value (LOX-IMVI melanoma; 40 mg/kg/dose) was “+121%” and the “Median Day of Death” value (LOX-IMVI melanoma; 40 mg/kg/dose) was 42.0 days. For the same molecule, the “increase in life span (ILS)” value (LOX-IMVI melanoma) was 121%, the survivors (LOX-IMVI melanoma) was “no survivors” and the “% ILS (dying mice only)” value (L1210/0 leukemia; [14]) was “+107%”. The “Net log10 reduction” value (L1210/0 leukemia; [14]) was 7 log10, the “Day 60 survivors/total” value (L1210/0 leukemia; [15]) was 0/10 and the “comparative activity against Lewis lung carcinoma” value (Lewis lung carcinoma) was “equivalent activity at equal host toxicity”. For the same molecule, the cure rate (Lewis lung carcinoma) was 50-70%, the “% ILS (increase in life span, excluding survivors)” value (Lewis lung carcinoma) was 68 and the “Log kill total (Log10 cell kill)” value (Lewis lung carcinoma) was greater than 6.8. For the same molecule, the Tumour-free survivors (Lewis lung carcinoma) was 5/10, the “comparative activity vs. P388 leukemia, historically” value (P388 leukemia [3]; historical) was “comparably active to CM-IPM” and the “comparative activity vs. M5076 sarcoma, historically” value (M5076 sarcoma [4]; historical) was “comparably active to CM-IPM”. The MTD (in vivo [5]) was 200 mg/kg, the MTD (in vivo [6]) was 200 mg/kg and the “toxicity in patients” value [7] was “hemorrhagic cystitis”.

For O=P1(NCCCl)OCCCN1CCCl (stereo not drawn) [Ifos, ifosfamide], the “% ILS (dying mice only)” value (L1210/CPA leukemia; mouse, in vivo) was “+85”, the “Day 60 survivors/total” value (L1210/CPA leukemia; mouse, in vivo) was 0/10 and the “Net log10 reduction” value (L1210/CPA leukemia; mouse, in vivo) was 5. The “% ILS (dying mice only)” value (L1210/CPA leukemia; mouse, in vivo, ip, 289 mg/kg) was “+57”, the “Day 60 survivors/total” value (L1210/CPA leukemia; mouse, in vivo, ip, 289 mg/kg) was 0/10 and the “Net log10 reduction” value (L1210/CPA leukemia; mouse, in vivo, ip, 289 mg/kg) was 4. The “tumor response / comparative activity vs. 16/C” value (mammary tumor 16/C) was “none of which caused tumor regression”, the “Days delay (T-C)” value [1] was greater than 39.7 and the “activity vs. MX-1” value ([2]; in vivo) was “high activity”. The “% ILS (dying mice only)” value (L1210/0 leukemia; mouse, in vivo) was “+185”, the “Day 60 survivors/total” value (L1210/0 leukemia; mouse, in vivo) was 0/10 and the “Net log10 reduction” value (L1210/0 leukemia; mouse, in vivo) was 8. The MTD Dosage (highest non-toxic dose, LD10 or less) (L1210/0 leukemia; mouse, in vivo, ip) was 289 mg/kg, the “% ILS (dying mice only)” value (L1210/0 leukemia; mouse, in vivo, ip, 289 mg/kg) was “+114” and the “Day 60 survivors/total” value (L1210/0 leukemia; mouse, in vivo, ip, 289 mg/kg) was 0/9. For the same molecule, the “Net log10 reduction” value (L1210/0 leukemia; mouse, in vivo, ip, 289 mg/kg) was 8, the “comparative activity against Lewis lung carcinoma” value (Lewis lung carcinoma) was “equivalent activity at equal host toxicity” and the cure rate (Lewis lung carcinoma) was 50-70%. The “% ILS (increase in life span, excluding survivors)” value (Lewis lung carcinoma) was 55, the “Log kill total (Log10 cell kill)” value (Lewis lung carcinoma) was greater than 4.5 and the Tumour-free survivors (Lewis lung carcinoma) was 7/10. For the same molecule, the “comparative activity vs. P388 leukemia, historically” value (P388 leukemia [3]; mouse, in vivo) was “comparably active to CM-IPM”, the “comparative activity vs. M5076 sarcoma, historically” value (M5076 sarcoma [4]; mouse, in vivo) was “comparably active to CM-IPM” and the MTD (in vivo [5]; [16]) was 431 mg/kg. The MTD (in vivo [6]) was 300 mg/kg.

In the case of O=P(O)(NCCCl)NCCCl [IPM, isophosphoramide mustard], the “% ILS (dying mice only)” value (L1210/CPA leukemia; [12]) is reported as “+114%”, the “Net log10 reduction” value (L1210/CPA leukemia; [12]) is reported as 7 log10 and the “Day 60 survivors/total” value (L1210/CPA leukemia; [13]) is reported as 1/10. The log cell kill (P388 leukemia [8]) was 4.8 log, the “45-Day Surv/Total” value (P388 leukemia [8]) was 1/5 and the “% ILS” value (P388 leukemia [8]) was “+64”. The “Approx. Net Log10 Change In Tumor Burden at End of Rx” value (P388 leukemia [8]) was -4.8, the “Median Day of Death” value (P388 leukemia [8]) was 18.0 and the “Days delay (T-C)” value (M5076 sarcoma [9]; [17]) was 1.0 days. The “Days to 2 Doublings” value (M5076 sarcoma [9]; [17]) was 10.3 days, the “Tumor-free Surv/Total” value (M5076 sarcoma [9]; [17]) was 0/6 and the “Days delay (T-C)” value (M5076 sarcoma [9]; [18]) was 3.3 days. The “Days to 2 Doublings” value (M5076 sarcoma [9]; [18]) was 12.6 days, the “Tumor-free Surv/Total” value (M5076 sarcoma [9]; [18]) was 0/6 and the “Days delay (T-C)” value (M5076 sarcoma [9]; [19]) was 6.1 days. For the same molecule, the “Days to 2 Doublings” value (M5076 sarcoma [9]; [19]) was 15.4 days, the “Tumor-free Surv/Total” value (M5076 sarcoma [9]; [19]) was 0/6 and the “days T-C” value (M5076 sarcoma [9]) was 6.1 days. The “tumor response / comparative activity vs. 16/C” value (mammary tumor 16/C) was “limited regression”, the “Days delay (T-C)” value [1] was 33.9 and the “activity vs. MX-1” value ([2]; experiment analogous to MCF-7) was “good activity; also recorded: more active but less so than CPA and Ifos”. For the same molecule, the “55-Day Surv./Total” value (LOX-IMVI melanoma; 40 mg/kg/dose) was 0/5, the “% ILS” value (LOX-IMVI melanoma; 40 mg/kg/dose) was “+52%” and the “Median Day of Death” value (LOX-IMVI melanoma; 40 mg/kg/dose) was 29.0 days. The “increase in life span (ILS)” value (LOX-IMVI melanoma) was “identical ILS”, the survivors (LOX-IMVI melanoma) was “no survivors” and the “comparative therapeutic efficacy against experimental leukemias and solid tumors” value [10] was “generally comparable to that of CPA and Ifos”. For the same molecule, the “% ILS (dying mice only)” value (L1210/0 leukemia; [14]) was “+128%”, the “Net log10 reduction” value (L1210/0 leukemia; [14]) was 8 log10 and the “Day 60 survivors/total” value (L1210/0 leukemia; [15]) was 0/10. For the same molecule, the “comparative activity against Lewis lung carcinoma” value (Lewis lung carcinoma) was “equivalent activity at equal host toxicity”, the cure rate (Lewis lung carcinoma) was 50-70% and the “% ILS (increase in life span, excluding survivors)” value (Lewis lung carcinoma) was 34. For the same molecule, the “Log kill total (Log10 cell kill)” value (Lewis lung carcinoma) was greater than 2.1, the Tumour-free survivors (Lewis lung carcinoma) was 6/10 and the MTD (in vivo [5]; [16]) was 100 mg/kg. The MTD (in vivo [6]) was 100 mg/kg and the “metabolite of Ifos in patients” value [11] was “major metabolite”.

With CS(=O)(=O)OCCNP(=O)(O)NCCBr [BM-IPM] the log cell kill (P388 leukemia [8]) was 5.5 log, the “45-Day Surv/Total” value (P388 leukemia [8]) was 0/5 and the “% ILS” value (P388 leukemia [8]) was “+73”. The “Approx. Net Log10 Change In Tumor Burden at End of Rx” value (P388 leukemia [8]) was -5.5, the “Median Day of Death” value (P388 leukemia [8]) was 19.0 and the “Days delay (T-C)” value (M5076 sarcoma [9]; [17]) was 0.8 days. The “Days to 2 Doublings” value (M5076 sarcoma [9]; [17]) was 10.1 days, the “Tumor-free Surv/Total” value (M5076 sarcoma [9]; [17]) was 0/6 and the “Days delay (T-C)” value (M5076 sarcoma [9]; [18]) was 7.2 days. For the same molecule, the “Days to 2 Doublings” value (M5076 sarcoma [9]; [18]) was 16.5 days, the “Tumor-free Surv/Total” value (M5076 sarcoma [9]; [18]) was 0/6 and the “Days to 2 Doublings” value (M5076 sarcoma [9]; [19]) was “Toxic”. For the same molecule, the “Tumor-free Surv/Total” value (M5076 sarcoma [9]; [19]) was 0/6, the “days T-C” value (M5076 sarcoma [9]) was 7.2 days and the “tumor response / comparative activity vs. 16/C” value (mammary tumor 16/C) was “superior to the clinical drugs CPA and Ifos and to MM-IPM”. The “Days delay (T-C)” value [1] was 4.7, the “activity vs. MX-1” value ([2]; experiment analogous to MCF-7) was “good activity; also recorded: more active but less so than CPA and Ifos” and the “comparative activity vs. LOX melanoma” value (LOX-IMVI melanoma) was “comparably active to IPM but less active than CPA”. The “55-Day Surv./Total” value (LOX-IMVI melanoma; 15 mg/kg/dose) was 0/5, the “% ILS” value (LOX-IMVI melanoma; 15 mg/kg/dose) was “+26%” and the “Median Day of Death” value (LOX-IMVI melanoma; 15 mg/kg/dose) was 24.0 days. For the same molecule, the “55-Day Surv./Total” value (LOX-IMVI melanoma; 30 mg/kg/dose) was 1/5, the “% ILS” value (LOX-IMVI melanoma; 30 mg/kg/dose) was “+52%” and the “Median Day of Death” value (LOX-IMVI melanoma; 30 mg/kg/dose) was 29.0 days. The “increase in life span (ILS)” value (LOX-IMVI melanoma) was 52% and the survivors (LOX-IMVI melanoma) was 20%.
